Test results from patent US7332480B2, “Compositions for the regulation of cytokine activity” (Yeda Research and Development Co. Ltd., priority 1992, dated 2008).

How the values were obtained:
[1] = tested on: experimental DTH reaction in mice; assay: In vivo bioassay of inhibition of experimental DTH reactivity (oxazolone, ear swelling); set-up: key to effect on DTH (printed in the Dose column): “N.E.” indicates that no effect was observed at the tested dosage range of 0.000004-4 μg/gm mouse; details: for effect on DTH (printed in the Dose column): tested dosage range of 0.000004-4 μg/gm mouse s.c.; for DTH / effective dose range for inhibition ≧50% of control: CD1 mice; for effective dose range for inhibition ≧50% of control: Table XXIIIC footnotes, DTH
Method: Groups of inbred BALB/c (Jackson Laboratories, Bar Harbor, Me.) or of outbred CD1 (Weizmann Institute Animal Breeding Center, Rehovot, Israel) mice are sensitized on the shaved abdominal skin with 100 μl of 2% oxazolone (OX) in acetone/olive oil (4/1, v/v) applied topically. DTH sensitivity is elicited 5 days later as follows: mice are challenged with 20 μl of 0.5% OX (10 μl administered topically to each side of the ear) in acetone/olive oil. A constant area of the ear is measured immediately before challenge and 24 and 48 h later with a Mitutoyo engineer's micrometer. The individual measuring ear swelling is blinded to the identity of the groups of mice. The increment (Δ) of ear swelling is expressed as the mean in units of 10^−2 mm or 10^−4 inch (+SE) depending on the micrometer that is used. Percent inhibition is calculated as follows: […]
Mice are treated with LMWH again Example 5.1, injected the day before primary sensitization to OX. On the fifth day after sensitization to OX, the 10 mice are challenged to induce a DTH reaction, as described above.
The positive control is the DTH reaction elicited in immunized mice in the absence of treatment with LMWH. The negative control is the background swelling produced by the antigen in naive (non-immunized) mice. […]
BALB/c mice (at least 5 mice per group) were sensitized on the shaved abdomen with 3% 4-ethoxymethylene-2-phenyl oxazolone (OX; BDH-Chemicals, GB) in acetone/olive oil applied topically. DTH sensitivity was elicited 5 days later as follows. Mice were challenged with 0.5% OX in acetone/olive oil. The ear was measured immediately before challenge and 24 h later with Mitutoyo engineer's micrometer (Japan). The individual measuring the swelling of the ear was blinded to the identity of the groups of mice. To interfere with DTH response, the low molecular weight immuno-regulatory fractions, diluted in PBS, were administrated subcutaneously into the back of the treated mice at the indicated time schedules and concentrations. Treated mice were inspected during and after (>2 months) the treatment and no major side-effects were observed clinically.
In particular, CD1 mice (available from the Weizmann Institute Animal Breeding Center, Rehovot, Israel), 4-12 mice per group were treated as described in Section 5.2 or 6.8.

[2] = tested on: secretion of active TNF-α by activated human CD4+ T cells; assay: Bioassay of TNF-α activity using human CD4+ T cells derived from PBLs (human PBL bioassay); format: cell-based; details: for Bioassay of TNF Activity: Table XXIII, conc range of 1 μg/ml-0.01 pg/ml, inconsistent = same result not obtained for all three bioassays; for “R” value: no effect, zero assigned
Text: Non adherent cells were eluted and washed.
Nophar, Y. et al. J. Immunol. (1988) 140 (10):3456-3460.

adjuvant arthritis = assay: Adjuvant arthritis (AA) in rats; format: in vivo, Lewis rats
[3] = tested on: LPS-induced inflammation of the cornea; assay: LPS-induced inflammation of the rat cornea; format: in vivo, Lewis rats
Method: LPS-induced inflammation of the cornea is TNF dependent, as shown by the work of Vanderhagen, C. and co-workers in the Netherlands, “Kinetics of Intraocular TNF and IL-6 in Endotoxin-Induced Uveitis in the Rat,” submitted for publication. Using a 30-gauge needle, LPS (5 ng) was injected into the cornea of Lewis rats. After one day, separate groups of rats, 2 to a group (or 4 eyes to a group) were then injected subcutaneously with phosphate-buffered saline (0.05 ml) or H-1020 (at a dose of either 50 ng/rat or 200 ng/rat). The effects, if any, were scored as follows:
in which the sum of the points is used as the total score.

IDDM of NOD mice = assay: Insulin dependent diabetes mellitus (IDDM) of NOD mice; format: in vivo; details: H-9392 30 ng, glucosamine 10,000 ng; all the control mice had died (FIG. 41A)
[4] = tested on: mortality after irradiation; assay: Radioprotective effects in gamma-irradiated mice; format: in vivo, BALB/c mice; details: 750 rads; three administrations; 300 ng H-9392, 1 μg glucosamine
Method: Groups of female BALB/c mice, 8 weeks old, 5-10 mice per group, were injected subcutaneously with either saline (0.1 ml, control), H-9392 (30 ng/mouse), or glucosamine (10,000 ng/mouse) 1 day before irradiation, and weekly thereafter until termination of the experiment on day 30. All the mice were irradiated to a dose of 700 rads using a ^60Co gamma radiation source.
The mortality within the different groups of mice was then scored over a 30 day period. […] The group of mice which had been injected with glucosamine also fared better than the control group, showing a 20% mortality rate in the same period.
In a separate experiment, groups of BALB/c mice (5 mice to a group) were likewise exposed to 750 rads of gamma-rays, except that these groups of mice were treated with test substances (saline at 0.1 ml per mouse; H-9392 at 0.3, 3, 30 and 300 ng/mouse; and glucosamine at 1, 10 and 100 μg/mouse) on the day before irradiation, on the sixth day after irradiation, and once again on the thirteenth day after irradiation only. All treatment ceased after the third and last administration.

[5] = Table XXIIIA, no effect, zero assigned

## N[C@H]1C(O)O[C@H](COS(=O)(=O)O)[C@@H](O[C@@H]2OC(C(=O)O)=C[C@H](O)[C@H]2O)[C@@H]1O (stereo partly drawn) [H-9017, 4-Deoxy-4-en-iduronic acid-(α-1,4)-2-deoxy-6-O-sulfateglucosamine]
[1]; [5]
  “R” value: 0 % × (μg/gm)^−1
[1]; Table XXIIIA
  effect on DTH (printed in the Dose column): N.E.
[2]
  Bioassay of TNF Activity: No effect
  “R” value: 0 % × (pg/ml)^−1

## CC(=O)N[C@H]1C(O)O[C@H](COS(=O)(=O)O)[C@@H](O[C@@H]2OC(C(=O)O)=C[C@H](O)[C@H]2OS(=O)(=O)O)[C@@H]1O (stereo partly drawn) [H-9517, 2-O-sulfate-4-deoxy-4-en-iduronic acid-(α-1,4)-2-deoxy-2-N-acetyl-6-O-sulfateglucosamine]
[2]
  Bioassay of TNF Activity: Inconsistent^c

## N[C@H]1C(O)O[C@H](CO)[C@H](O)[C@@H]1O (stereo partly drawn) [GalN, D-Galactosamine, reference compound]
[1]; Table XXIIIC, 0.00004 μg/gm s.c., control 18.9 ± 0.7
  DTH: 8.9 ± 0.6 10^−2 mm
[1]; Table XXIIIC, 0.12 μg/gm s.c., control 18.9 ± 0.7
  DTH: 6.5 ± 0.7 10^−2 mm
Adjuvant arthritis; different dosages, s.c. weekly (FIG. 38C)
  effect on AA: inhibitory effects but to a much lesser degree

## N[C@H]1C(O)O[C@H](CO)[C@@H](O[C@@H]2OC(C(=O)O)=C[C@H](O)[C@H]2OS(=O)(=O)O)[C@@H]1O (stereo partly drawn) [H-9142, 2-O-sulfate-4-deoxy-4-en-iduronic acid-(α-1,4)-2-deoxyglucosamine]
[1]; [5]
  “R” value: 0 % × (μg/gm)^−1
[1]; Table XXIIIA
  effect on DTH (printed in the Dose column): N.E.
[2]
  Bioassay of TNF Activity: Inconsistent

## O=S(=O)(O)N[C@H]1C(O)O[C@H](CO)[C@@H](O)[C@@H]1OS(=O)(=O)O (stereo partly drawn) [GlcN-2, 3S, D-Glucosamine-2,3-disulfate, reference compound]
[1]; s.c.
  effective dose range for inhibition ≧50% of control: narrow

## O=S(=O)(O)N[C@H]1C(O)O[C@H](COS(=O)(=O)O)[C@@H](O)[C@@H]1O (stereo partly drawn) [GlcN-2, 6S, D-Glucosamine-2,6-disulfate, reference compound]
[1]; s.c.
  effective dose range for inhibition ≧50% of control: narrow

## NC1C(O)OC(COS(=O)(=O)O)C(OC2OC(C(=O)O)=CC(O)C2OS(=O)(=O)O)C1O (stereo not drawn) [H-8892, 2-O-sulfate-4-deoxy-4-en-iduronic acid-(α-1,4)-2-deoxy-6-O-sulfateglucosamine]
[1]; [5]
  “R” value: 0 % × (μg/gm)^−1
[1]; Table XXIIIA
  effect on DTH (printed in the Dose column): N.E.
[2]
  Bioassay of TNF Activity: No effect
  “R” value: 0 % × (pg/ml)^−1

## C[C@@H]1C[C@H]2[C@@H]3CCC4=CC(=O)C=C[C@]4(C)[C@@]3(F)[C@@H](O)C[C@]2(C)[C@@]1(O)C(=O)COP(=O)(O)O [dexamethasone phosphate, reference compound]
Adjuvant arthritis; treatment from day 12, dexamethasone phosphate daily or weekly, disaccharide weekly
  course of AA after treatment was ended: suffered a relapse
Adjuvant arthritis; weekly s.c. from day 12, dexamethasone phosphate 100 μg or disaccharide 120 ng per rat (FIG. 38G)
  severity of the AA score at 30 days post-induction: only a moderate reduction in the severity of the AA score

## O=C(O)C1=C[C@H](O)[C@@H](OS(=O)(=O)O)[C@H](O[C@H]2[C@H](O)[C@@H](NS(=O)(=O)O)C(O)O[C@@H]2COS(=O)(=O)O)O1 (stereo partly drawn) [H-9267, 2-O-sulfate-4-deoxy-4-en-iduronic acid-(α-1,4)-2-deoxy-2-N-sulfate-6-O-sulfateglucosamine]
[1]; Table XXIIIA, inhibition of DTH, s.c.
  “R” value: 1.60 × 10^5 % × (μg/gm)^−1
[2]
  Bioassay of TNF Activity: Inconsistent

## CC(=O)N[C@H]1C(O)O[C@H](CO)[C@@H](O)[C@@H]1O (stereo partly shown) [NAc-GlcN, N-Acetylglucosamine, reference compound]
[1]; Table XXIIIC
  effect on DTH (printed in the Dose column): N.E.

## O=S(=O)(O)N[C@H]1C(O)O[C@H](CO)[C@@H](O)[C@@H]1O (stereo partly drawn) [GlcN-2S, D-Glucosamine-2-N-sulfate, reference compound]
[1]; Table XXIIIC, no effect, zero assigned
  “R” value: 0 % × (μg/gm)^−1
[1]; Table XXIIIC
  effect on DTH (printed in the Dose column): N.E.

## N[C@H]1C(O)O[C@H](COS(=O)(=O)O)[C@@H](O)[C@@H]1O (stereo partly drawn) [GlcN-6S, D-Glucosamine-6-sulfate, reference compound]
[1]; Table XXIIIC
  effect on DTH (printed in the Dose column): N.E.

## O=C(O)C1=C[C@H](O)[C@@H](O)[C@H](O[C@H]2[C@H](O)[C@@H](NS(=O)(=O)O)C(O)O[C@@H]2COS(=O)(=O)O)O1 (stereo partly drawn) [H-1020, 4-deoxy-4-en-iduronic acid-(α-1,4)-2-deoxy-2-N-sulfate-6-O-sulfateglucosamine]
[3]; 50 ng/rat s.c. (FIG. 39)
  effect on local LPS-induced inflammation relative to control: effective to suppress
[3]; 200 ng/rat s.c. (FIG. 39)
  effect on local LPS-induced inflammation relative to control: failed to provide a significant effect

## CC(=O)NC1C(O)OC(COS(=O)(=O)O)C(OC2OC(C(=O)O)=CC(O)C2O)C1O (stereo not drawn) [H-8642, 4-deoxy-4-en-iduronic acid-(α-1,4)-2-deoxy-2-N-acetyl-6-O-sulfateglucosamine]
[1]; [5]
  “R” value: 0 % × (μg/gm)^−1
[1]; Table XXIIIA
  effect on DTH (printed in the Dose column): N.E.
[2]
  Bioassay of TNF Activity: Inconsistent

## N[C@H]1C(O)O[C@H](CO)[C@@H](O)[C@@H]1OS(=O)(=O)O (stereo partly drawn) [GlcN-3S, D-Glucosamine-3-sulfate, reference compound]
[1]; Table XXIIIC
  effect on DTH (printed in the Dose column): N.E.

## CC(=O)N[C@H]1C(O)O[C@H](CO)[C@@H](O[C@@H]2OC(C(=O)O)=C[C@H](O)[C@H]2OS(=O)(=O)O)[C@@H]1O (stereo partly drawn) [H-8767, 2-O-sulfate-4-deoxy-4-en-iduronic acid-(α-1,4)-2-deoxy-2-N-acetylglucosamine]
[1]; [5]
  “R” value: 0 % × (μg/gm)^−1
[1]; Table XXIIIA
  effect on DTH (printed in the Dose column): N.E.
[2]
  Bioassay of TNF Activity: Inconsistent

## O=C(O)C1=C[C@H](O)[C@@H](O)[C@H](O[C@H]2[C@H](O)[C@@H](NS(=O)(=O)O)C(O)O[C@@H]2CO)O1 (stereo partly drawn) [H-1145, 4-deoxy-4-en-iduronic acid-(α-1,4)-2-deoxy-2-N-sulfateglucosamine]
[1]; [5]
  “R” value: 0 % × (μg/gm)^−1
[1]; Table XXIIIA
  effect on DTH (printed in the Dose column): N.E.

## N[C@@H](C=O)[C@@H](O)[C@H](O)[C@H](O)CO [GlcN, 2-amino-2-deoxy-D-glucose, reference compound]
[1]; Table XXIIIC, 0.000012 μg/gm s.c., control 19.7 ± 1.2
  DTH: 5 ± 0.7 10^−2 mm
[1]; Table XXIIIC, 0.4 μg/gm s.c., control 19.7 ± 1.2
  DTH: 2.3 ± 0.9 10^−2 mm
IDDM of NOD mice
  mice died by age 5 months: about half
[4]
  activity in suppressing mortality after irradiation: moderate activity
